Experimental data from patent publication US6010890A, “Method for viral inactivation and compositions for use in same” (New York Blood Center, Inc., priority 1997, dated 2000).
“Also recorded” adds a separate entry of the source. Like-named read-outs stand apart in the source and are kept apart here.

What was measured:
RBC [1] = assay: Binding of Pc4 to RBC in RBCC (HPLC after extraction); type: in vitro ADME, human; details: for Pc4 Bound to RBC: 2 μM
Procedure: The amount of Pc4 bound to RBC in the RBCC was measured using HPLC and extraction procedure described previously (Zuk, M. M., et al. J. Chromat. B Biomed. Appl. 673:220-224 (1995)). Amount of Pc4 was expressed as a percentage of the total recovered in RBCC. Recovery of Pc4 was about 90% (±10%).
^1 Pc4 was added into RBCC at 2 μM final concentration. At various
times thereafter at room temperature, RBC were separated by
centrifugation, rinsed 5 times with PBS, and Pc4 was extracted and
analyzed by HPLC, as described. Pc4 not bound to RBC was recovered
quantitatively from the plasma.
^1 Pc4 was added into RBCC at 2 μM final concentration formulated
in the indicated liposomes. After 35 minutes at 4° C., RBC were
separated by centrifugation, rinsed 5 times with PBS, and Pc4 was analyze

VSV [2] = type: cell-based
RBC [3] = assay: RBC hemolysis during storage following virucidal treatment (Example 1); type: cell-based, human
Procedure: FIG. 2 represents RBC hemolysis during storage following virucidal treatment. Pc4 was added into RBCC in the indicated delivery vehicle at a final concentration of 2 μM and exposed to 90 J/cm2 broad band red light at room temperature after the indicated incubation time at room temperature. The treated RBCC were stored at 4° C. prior to assay.
FIG. 4 represents RBC hemolysis during storage following virucidal treatment. PC4 was added to RBCC in the indicated liposomal formulations at 2 μM and exposed to 668 nm light at room temperature and the indicated dose after 5 minutes incubation. The treated RBCC were stored at 4° C. prior to assay.
FIG. 6 represents RBC hemolysis during storage following virucidal treatment. […] The treated RBCC were stored at 4° C. prior to assay.
RBCC samples (3 ml in polystyrene tubes) at hematocrit of 58-60% in ADSOL (obtained from Blood Services, New York Blood Center) were irradiated with red light either as a broad band (600-800 nm) or as a narrow band at 668 nm or 700 nm. Broad band light was from a 300 W xenon lamp (Oriel Corp., Stratford, Conn.) equipped with a cutoff filter (λ>600 nm) with an irradiance of 25 mW/cm^2. Narrow band light (27 nm bandwidth at half-height) was from LED arrays (Efos Canada, Inc., Mississauga, Ontario, Canada) emitting at either 668 nm or 700 nm with an irradiance of 50 mW/cm^2. During irradiation the samples were rotated and rolled on a hematology mixer (Fisher Scientific, Inc., Pittsburgh, Pa.) to obtain even exposure. Temperature was kept at 25 or 4° C. by an air stream of appropriate temperature.
Samples of RBCC were stored after treatment at 4° C. The extent of hemolysis was determined by comparing the hemoglobin in the supernatant to the total hemoglobin. The total hemoglobin was determined by using the Drabkin reagent (Sigma Procedure #525, Sigma Chemical Co., St. Louis, Mo.). The absorption at 540 nm was used to calculate the amount of hemoglobin released in the supernatant.

baboon RBC = assay: Circulatory survival of baboon RBC after virucidal treatment (preliminary); type: in vivo
VSV [4] = type: cell-based; details: for Light Dose (for ≥6 log10 virus kill): Pc4 2 μM with 4 mM cysteine, 1 mM tocopherol succinate, 0.5 mM carnitine, 670 nm LED
BDV = assay: Virus inactivation in RBCC using Pc4 and red light: BDV (Example 2); type: cell-based; details: for Light Dose (for ≥6 log10 virus kill): Pc4 2 μM with 4 mM cysteine, 1 mM tocopherol succinate, 0.5 mM carnitine, 670 nm LED
HIV (cell-free) = assay: Virus inactivation in RBCC using Pc4 and red light: HIV cell-free (Example 2); type: cell-based; details: for Light Dose (for ≥6 log10 virus kill): HIV (cell-free), Pc4 2 μM with 4 mM cysteine, 1 mM tocopherol succinate, 0.5 mM carnitine, 670 nm LED
HIV (cell-assoc.) = assay: Virus inactivation in RBCC using Pc4 and red light: HIV cell-associated (Example 2); type: cell-based
HIV = type: cell-based
RBC [5] = assay: Hemolysis after 21 day storage of RBCC treated with liposomal Pc4 and formulations of tocopherol succinate (Example 3); type: cell-based; details: with 2 μM liposomal Pc4, 10 J/cm^2, 670 nm, 4° C.
Procedure: RBCC were treated with 2 μM Pc4 in POPC:DOPC=4:1 liposomes in the presence of 1 mM tocopherol succinate in the formulations presented in Table 4 below, and exposed to 10 J/cm^2 of red light (670 nm) emitted by LED array. The RBCC were then stored for 21 days at 4° C.

Procedure for rabbit RBC: Pc4 was added to rabbit RBCC in POPC:DOPS=4:1 liposomes at 2 μM and exposed to 0, 10 and 15 J/cm^2, as indicated, of 700 nm light at room temperature after 5 minutes pre-irradiation incubation. The treated RBCC were labeled with ^51 CrO^2- and their circulatory survival assayed as described in Materials and Methods.
Rabbit RBCC were treated as described for human red cells and their circulatory survival was determined as described previously (Rywkin, S., et al. Photochem. Photobiol. 56:463-469 (1992). Briefly, treated red cells were labelled with 1 μCi/ml Na2 ^51 CrO4 for 1 hour at room temperature and then thoroughly washed with PBS. The labelled cells were infused autologously. At intervals, 1 ml blood was withdrawn and the radioactivity associated with RBC was determined.

CN(C)CCC[Si](C)(C)O[Si]1(O)n2c3c4ccccc4c2N=C2N=C(N=c4c5ccccc5c(n41)=NC1=NC(=N3)c3ccccc31)c1ccccc12 (stereo not drawn) [Pc4, hydroxysiloxydimethylpropyl-N-dimethyl silicon phthalocyanine]
Pc4 binding to RBC at room temperature compared with 4° C. (RBC [1]; POPC:DOPS=9:1 liposomes, Tables 1 and 2): more binding to RBC than at 4 °C | Pc4 Bound to RBC (RBC [1]; delivery vehicle CRM, incubation time 0 min, room temperature): 59% | Pc4 Bound to RBC (RBC [1]; delivery vehicle CRM, incubation time 5 min, room temperature): 58% | Pc4 Bound to RBC (RBC [1]; delivery vehicle CRM, incubation time 30 min, room temperature): 58% | Pc4 Bound to RBC (RBC [1]; delivery vehicle CRM, incubation time 90 min, room temperature): 64% | Pc4 Bound to RBC (RBC [1]; delivery vehicle DMSO, incubation time 0 min, room temperature): 54% | Pc4 Bound to RBC (RBC [1]; delivery vehicle DMSO, incubation time 5 min, room temperature): 54% | Pc4 Bound to RBC (RBC [1]; delivery vehicle DMSO, incubation time 30 min, room temperature): 56% | Pc4 Bound to RBC (RBC [1]; delivery vehicle DMSO, incubation time 90 min, room temperature): 54% | Pc4 Bound to RBC (RBC [1]; delivery vehicle Liposomes (POPC:DOPS = 9:1), incubation time 0 min, room temperature): 6% | Pc4 Bound to RBC (RBC [1]; delivery vehicle Liposomes (POPC:DOPS = 9:1), incubation time 5 min, room temperature): 9% | Pc4 Bound to RBC (RBC [1]; delivery vehicle Liposomes (POPC:DOPS = 9:1), incubation time 30 min, room temperature): 15% | Pc4 Bound to RBC (RBC [1]; delivery vehicle Liposomes (POPC:DOPS = 9:1), incubation time 90 min, room temperature): 44% | Pc4 Bound to RBC (RBC [1]; liposomal preparation POPC:DOPS = 1:1, 35 minutes at 4° C.): 0.8% | Pc4 Bound to RBC (RBC [1]; liposomal preparation POPC:DOPS = 1:2, 35 minutes at 4° C.): 1.0% | Pc4 Bound to RBC (RBC [1]; liposomal preparation POPC:DOPS = 4:1, 35 minutes at 4° C.): 4.4% | Pc4 Bound to RBC (RBC [1]; liposomal preparation POPC:DOPS = 9:1, 35 minutes at 4° C.): 4.8% | Pc4 Bound to RBC (RBC [1]; liposomal preparation POPC:DOPS:PEG = 8:1:1, 35 minutes at 4° C.): 23.5% | Pc4 Bound to RBC (RBC [1]; liposomal preparation POPC:DOPS:chol = 9:1:10, 35 minutes at 4° C.): 33.7% | Pc4 binding to red cells, effect of liposome composition (RBC [1]; words, PEG, cholesterol or DOPS ratio as stated (Table 2)): progressively reduced binding of Pc4 to red cells | inactivation of VSV, 668 vs 700 nm LED (VSV [2]; Pc4 2 μM in POPC:DOPS=4:1 liposomes, 4° C. (FIG. 5)): equally effective | rate of inactivation of VSV, dependence on pre-irradiation incubation time (VSV [2]; liposomal Pc4 2 μM, broad band red light (FIG. 1)): does not depend on time of incubation of liposomal Pc4 prior to light exposure | VSV kill, effect of incubation temperature (VSV [2]; room temperature vs 4° C.): not affected by the incubation temperature | hemolysis development during storage, 668 nm compared with 700 nm LED (RBC [3]; Pc4 2 μM in POPC:DOPS=4:1 liposomes, 10 J/cm^2 (FIG. 6)): much faster | rate of hemolysis during storage, 700 nm LED compared with untreated control (RBC [3]; Pc4 2 μM in POPC:DOPS=4:1 liposomes, 10 J/cm^2 of 700 nm light (FIG. 6)): only slightly faster than in control | RBC damage / hemolysis at equivirucidal doses (RBC [3]; Pc4 2 μM in POPC:DOPS=4:1 liposomes, 668 nm (FIG. 4)): least RBC damage; also recorded: minimal hemolysis | RBC hemolysis during storage, liposomes vs other vehicles (RBC [3]; Pc4 2 μM, 90 J/cm2 broad band red light, 4° C. storage (FIG. 2)): less hemolysis | RBC hemolysis during storage, effect of incubation time (RBC [3]; liposomal Pc4 2 μM, 90 J/cm2 broad band red light (FIG. 2)): incubation for 5 minutes was better than for 30 minutes | hemolysis following a virucidal light dose (RBC [3]; liposomal Pc4, 10 J/cm^2, 700 nm, over 3 weeks storage, 30240 min, 2 µM): ≤ 1% | effect on circulatory survival of red cells (baboon RBC; baboon, 10 J/cm^2 of 700 nm light): only a slight effect | 24 hour recovery in vivo of the treated RBC (baboon RBC; baboons): exceeded 90% | circulatory half-life and 24 hour recovery (baboon RBC; baboons, liposomal Pc4, 10 J/cm^2, 700 nm): essentially normal | circulatory half-life of RBC (baboon RBC; baboons, liposomal Pc4 and 10 J/cm2 of 700 nm light, from 13.2 days, preliminary): 278 h | Light Dose (for ≥6 log10 virus kill) (VSV [4]; Blood Bags (50 ml)): 22 J/cm2 | Light Dose (for ≥6 log10 virus kill) (VSV [4]; Test Tubes (3 ml)): 5 J/cm2 | virus kill (VSV [4]; at the light doses of Table 3): ≥ 6 log10 | Light Dose (for ≥6 log10 virus kill) (BDV; Blood Bags (50 ml)): 30 J/cm2 | Light Dose (for ≥6 log10 virus kill) (BDV; Test Tubes (3 ml)): 7 J/cm2 | virus kill (BDV; at the light doses of Table 3): ≥ 6 log10 | Light Dose (for ≥6 log10 virus kill) (HIV (cell-free); Blood Bags (50 ml)): 55 J/cm2 | Light Dose (for ≥6 log10 virus kill) (HIV (cell-free); Test Tubes (3 ml)): 15 J/cm2 | virus kill (HIV (cell-free); HIV, at the light doses of Table 3): ≥ 6 log10 | Light Dose (for ≥6 log10 virus kill) (HIV (cell-assoc.); Blood Bags (50 ml), Pc4 2 μM with 4 mM cysteine, 1 mM tocopherol succinate, 0.5 mM carnitine, 670 nm LED): 55 J/cm2 | Light Dose (at this dose only 4 log10 kill) (HIV (cell-assoc.); Test Tubes (3 ml), Pc4 2 μM with 4 mM cysteine, 1 mM tocopherol succinate, 0.5 mM carnitine, 670 nm LED): 15 J/cm2 | virus kill (HIV (cell-assoc.); Test Tubes, 15 J/cm2): 4 log10 | viral reduction of HIV versus RBC hemolysis (HIV): best viral reduction of HIV with the least amount of RBC hemolysis | reduction of circulatory survival of red cells (rabbit RBC; rabbit, 10 J/cm^2 of 700 nm light (FIG. 7)): about 30% | 24 hour recovery in vivo of the treated RBC (rabbit RBC; rabbits): exceeded 90% | circulatory half-life of RBC (rabbit RBC; rabbits, 10 J/cm^2 of 700 nm light, control 10.5 days (FIG. 7)): 180 h | circulatory half-life and 24 hour recovery (rabbit RBC; rabbits, liposomal Pc4, 10 J/cm^2, 700 nm): close to normal

Cc1c(C)c2c(c(C)c1OC(=O)CCC(=O)O)CCC(C)(CCCC(C)CCCC(C)CCCC(C)C)O2 (stereo not drawn) [α-tocopherol succinate]
Hemolysis After 21 Day Storage (RBC [5]; 1 mM α-tocopherol succinate formulated in Ethanol): 10.5% | Hemolysis After 21 Day Storage (RBC [5]; 1 mM α-tocopherol succinate formulated in POPC:DOPS = 4:1): 18.3% | Hemolysis After 21 Day Storage (RBC [5]; 1 mM α-tocopherol succinate formulated in POPC:DOPS:chol = 9:1:10): 6.1% | Hemolysis After 21 Day Storage (RBC [5]; 1 mM α-tocopherol succinate formulated in POPC): 1.2%
